# Assay results published in patent US7361665B2, “Inhibitors of c-Jun N-terminal kinases (JNK) and other protein kinases” (Vertex Pharmaceuticals Incorporated, priority 2002, dated 2008).
# Target: T1, JNK3 (Homo sapiens, UniProt P53779)
# T1 construct: One such construct encodes amino acid residues Ser40-Glu402 of JNK3α1 and is preceded by Met and Gly residues; Met-Gly dipeptide (initiation Met plus Gly added for the NcoI site) (N); made in house; host or cells: E. coli BL21 (DE3)
# Assay: JNK inhibition assay (spectrophotometric coupled-enzyme assay)
# Format: biochemical
# Details: activated JNK3 10 nM, 10 μM ATP, 30° C.; read-out: JNK3 Activity (Ki rating)
# Source text: A BLAST search of the EST database using the published JNK3α1 cDNA as a query identified an EST clone (#632588) that contained the entire coding sequence for human JNK3α1. Polymerase chain reactions (PCR) using pfu polymerase (Strategene) were used to introduce restriction sites into the cDNA for cloning into the pET-15B expression vector at the NcoI and BamHI sites. The protein was expressed in E. coli. Due to the poor solubility of the expressed full-length protein (Met 1-Gln 422), an N-terminally truncated protein starting at Ser residue at position 40 (Ser 40) was produced. This truncation corresponds to Ser 2 of JNK1 and JNK2 proteins, and is preceded by a methionine (initiation) and a glycine residue. The glycine residue was added in order to introduce an NcoI site for cloning into the expression vector. In addition, systematic C-terminal truncations were performed by PCR to identify a construct that give rise to diffraction-quality crystals. One such construct encodes amino acid residues Ser40-Glu402 of JNK3α1 and is preceded by Met and Gly residues.
# Five mg of JNK3 was diluted to 0.5 mg/ml in 50 mM HEPES buffer, pH 7.5, containing 100 mM NaCl, 5 mM DTT, 20 mM MgCl2 and 1 mM ATP. GST-MKK7(DD) was added at a molar ratio of 1:2.5 GST-MKK7:JNK3. After incubation for 30 minutes at 25° C., the reaction mixture was concentrated 5-fold by ultrafiltration in a Centriprep-30 (Amicon, Beverly, Mass.), diluted to 10 ml and an additional 1 mM ATP added. This procedure was repeated three times to remove ADP and replenish ATP. The final addition of ATP was 5 mM and the mixture incubated overnight at 4° C.
# The activated JNK3/GST-MKK7(DD) reaction mixture was exchanged into 50 mM HEPES buffer, pH 7.5, containing 5 mM DTT and 5% glycerol (w/v) by dialysis or ultrafiltration. The reaction mixture was adjusted to 1.1 M potassium phosphate, pH 7.5, and purified by hydrophobic interaction chromatography (at 25° C.) using a Rainin Hydropore column. […] Activated JNK3 (i.e. doubly phosphorylated JNK3) was stored at −70° C. at 0.25-1 mg/ml.
# Compounds were assayed for the inhibition of JNK3 by a spectrophotometric coupled-enzyme assay. In this assay, a fixed concentration of activated JNK3 (10 nM) was incubated with various concentrations of a potential inhibitor dissolved in DMSO for 10 minutes at 30° C. in a buffer containing 0.1 M HEPES buffer, pH 7.5, containing 10 mM MgCl2, 2.5 mM phosphoenolpyruvate, 200 μM NADH, 150 μg/mL pyruvate kinase, 50 μg/mL lactate dehydrogenase, and 200 μM EGF receptor peptide. The EGF receptor peptide has the sequence […] (SEQ ID NO: 3), and is a phosphoryl acceptor in the JNK3-catalyzed kinase reaction. The reaction was initiated by the addition of 10 μM ATP and the assay plate is inserted into the spectrophotometer's assay plate compartment that was maintained at 30° C. The decrease of absorbance at 340 nm was monitored as a function of time. The rate data as a function of inhibitor concentration was fitted to competitive inhibition kinetic model to determine the Ki.
# The compound numbers correspond to the compound numbers in Tables 1-3.
# T1 sequence (P53779 40-402): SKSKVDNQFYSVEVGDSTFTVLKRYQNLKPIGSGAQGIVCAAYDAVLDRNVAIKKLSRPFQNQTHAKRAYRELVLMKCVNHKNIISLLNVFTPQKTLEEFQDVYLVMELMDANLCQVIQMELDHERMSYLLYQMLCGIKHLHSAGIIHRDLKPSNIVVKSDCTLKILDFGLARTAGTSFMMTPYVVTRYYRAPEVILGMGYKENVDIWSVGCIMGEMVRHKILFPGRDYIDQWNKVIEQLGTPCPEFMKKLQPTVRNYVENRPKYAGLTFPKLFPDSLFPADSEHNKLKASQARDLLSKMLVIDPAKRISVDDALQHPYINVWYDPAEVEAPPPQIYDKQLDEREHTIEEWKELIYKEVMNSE
compound,measurement,value
Cc1nc(-c2cccs2)sc1-c1ccnc(Nc2ccc(S(N)(=O)=O)cc2)n1 [IIc-22],Ki,< 100 nM
